According to patent US6384080B1, “Anthranilic acid derivatives as inhibitors of the cGMP-phosphodiesterase” (Fujisawa Pharmaceutical Co., Ltd., priority 1998, dated 2002):
Counter-ions that a name gives are not always drawn. Like-named read-outs stand apart in the source and are kept apart here.

Molecular target: T1, human platelet PDE-V (Homo sapiens, UniProt O76074)
T1 construct: Human platelet cGMP-PDE was separated from other isozymes in human platelets; from tissue; host or cells: human platelets
Experiment: cGMP-Phosphodiesterase (PDE) assay, enzymatic inhibitory test
Type: biochemical
Experimental: cGMP-Phosphodiesterase (PDE) Assay
Human platelet cGMP-PDE was separated from other isozymes in human platelets by a modification of the method of Thompson et. al. (see Cyclic Nucleotide Phosphodiesterase (PDE), in Methods of Enzymatic analysis, Vol 4, p127-234, 1984). In enzyme inhibition assays, the test compounds were dissolved in DMSO and then diluted with assay buffer (50 mM Tris-HCl, 0.077 mg/ml dithiothreitol and 10 mg/ml snake venom, 1 mM EGTA, pH 8.0), at final concentrations ranging from 10^−10 to 10^−6 M. Assays were performed at 0.1 μM substrate ([^3H]-cGMP) concentration, at 30° C. for 10 minutes using enzyme dilutions which gave 10-20% hydrolysis of substrate. Each assay was initiated by addition of substrate and terminated by addition of anion exchange resin (Dowex® 1-X8, 250 mg/mg) followed by centrifugation for 10 minutes (3000 rpm, at 4° C.). Radioactivity of supernatant (^3H-GMP) was assayed by liquid scintillation counting.

[1] = human platelet PDE-V, 0.1 μM [3H]-cGMP substrate, 30° C., 10 minutes, read-out: Inhibitory activity IC50

IC50 [1] [nM]	Structure (SMILES)	IC50 [nM]
< 10	COc1ccc(CNC(=O)c2cc(C(F)(F)F)ccc2NC(CO)CO)cc1Cl [N-(3-Chloro-4-methoxybenzyl)-2-[2-hydroxy-1-(hydroxymethyl)ethylamino]-5-(trifluoromethyl)benzamide]	
< 10	O=C(NCc1ccc2c(c1)OCO2)c1cc([N+](=O)[O-])ccc1N[C@@H]1CCOC1 [(R)-5-Nitro-2-(tetrahydro-3-furanylamino)-N-(1,3-benzodioxol-5-ylmethyl)benzamide]	
< 10	O=C(NCc1ccccc1)c1cc([N+](=O)[O-])ccc1N[C@@H]1CCC[C@H]1O (relative stereo) [N-Benzyl-2-(trans-2-hydroxycyclopentylamino)-5-nitrobenzamide]	
< 10	O=C(NCc1cc2ccccc2s1)c1cc([N+](=O)[O-])ccc1N[C@H]1CC[C@@H](O)CC1 [N-(Benzo[b]thiophen-2-ylmethyl)-2-(cis-4-hydroxycyclohexylamino)-5-nitrobenzamide]	
< 10	Nc1ccc(CNC(=O)c2cc([N+](=O)[O-])ccc2NC2CCCC2)cc1 [N-(4-Aminobenzyl)-2-(cyclopentylamino)-5-nitrobenzamide]	
< 10	CC(C)(C)Nc1ccc([N+](=O)[O-])cc1C(=O)NCc1ccc2c(c1)OCO2 [2-(tert-Butylamino)-5-nitro-N-(1,3-benzodioxol-5-ylmethyl)benzamide]	
< 10	CCOC(=O)N1CCC(Nc2ccc([N+](=O)[O-])cc2C(=O)NCc2ccc3c(c2)OCO3)CC1 [2-[1-(Ethoxycarbonyl)piperidin-4-ylamino]-5-nitro-N-(1,3-benzodioxol-5-ylmethyl)benzamide]	
< 10	O=C(NCc1ccc(F)c(F)c1)c1cc([N+](=O)[O-])ccc1NC1CCCC1 [2-(Cyclopentylamino)-N-(3,4-difluorobenzyl)-5-nitrobenzamide]	
< 10	COc1ccc(CNC(=O)c2cc([N+](=O)[O-])ccc2N[C@H]2CC[C@H](NC(=N)N)CC2)cc1OC [N-(3,4-dimethoxybenzyl)-2-(trans-4-guanidinocyclohexylamino)-5-nitrobenzamide hydrochloride]	
< 10	C[C@@H](O)[C@@H](CO)Nc1ccc([N+](=O)[O-])cc1C(=O)NCc1ccc2c(c1)OCO2 [2-[(1R, 2R)-2-Hydroxy-1-(hydroxymethyl)propylamino]-5-nitro-N-(1,3-benzodioxol-5-ylmethyl)benzamide]	
< 10	O=C(NCc1cccc(Cl)c1)c1cc([N+](=O)[O-])ccc1NC1CCCC1 [N-(3-Chlorobenzyl)-2-(cyclopentylamino)-5-nitrobenzamide]	
< 10	O=C(NCc1cc2ccccc2o1)c1cc([N+](=O)[O-])ccc1N[C@H]1CC[C@@H](O)CC1 [N-(Benzofuran-2-ylmethyl)-2-(cis-4-hydroxycyclohexylamino)-5-nitrobenzamide]	
< 10	O=C(NCc1nc2ccccc2[nH]1)c1cc([N+](=O)[O-])ccc1NC1CCCC1 [N-[(2-Benzimidazolyl)methyl]-2-(cyclopentylamino)-5-nitrobenzamide]	
< 10	O=C(NCc1ccc2c(c1)OCO2)c1cc([N+](=O)[O-])ccc1NC1CCNCC1 [5-nitro-2-(4-piperidinylamino)-N-(1,3-benzodioxol-5-ylmethyl)benzamide]	
< 10	CSc1ccc(CNC(=O)c2cc([N+](=O)[O-])ccc2N[C@H]2CC[C@H](O)CC2)cc1 [2-(trans-4-Hydroxycyclohexyl)amino-N-[4-(methylthio)benzy]-5-nitrobenzamide]	
< 10	CCOc1ccc(CNC(=O)c2cc([N+](=O)[O-])ccc2N[C@H]2CC[C@@H](O)CC2)cc1OC [N-(4-Ethoxy-3-methoxybenzyl)-2-(cis-4-hydroxycyclohexylamino)-5-nitrobenzamide]	
< 10	CC(=O)N1CCC(Nc2ccc([N+](=O)[O-])cc2C(=O)NCc2ccc3c(c2)OCO3)CC1 [2-(1-acetyl-4-piperidinylamino)-5-nitro-N-(1,3-benzodioxol-5-ylmethyl)benzamide]	
< 10	O=C(NCc1ccc2c(c1)OCO2)c1cc([N+](=O)[O-])ccc1N[C@H]1CC[C@@H](Cl)CC1 [2-(cis-4-chlorocyclohexylamino)-5-nitro-N-(1,3-benzodioxol-5-ylmethyl)benzamide]	
< 10	O=C(NCc1ccccc1)c1cc([N+](=O)[O-])ccc1NC1CCCCC1 [N-Benzyl-2-(cyclohexylamino)-5-nitrobenzamide]	
< 10	CCCCCCNC(=O)c1cc([N+](=O)[O-])ccc1NC1CCCC1 [2-(Cyclopentylamino)-N-hexyl-5-nitrobenzamide]	
< 10	COc1ccc(CNC(=O)c2cc(Br)ccc2NC2CCCC2)cc1Cl [5-bromo-N-(3-chloro-4-methoxybenzyl)-2-(cycloperitylamino)benzamide hydrochloride]	
< 10	O=C(NCc1ccco1)c1cc([N+](=O)[O-])ccc1NC1CCCC1 [2-(Cyclopentylamino)-N-furfuryl-5-nitrobenzamide]	
< 10	O=CN1CCC(Nc2ccc([N+](=O)[O-])cc2C(=O)NCc2ccc3c(c2)OCO3)CC1 [2-(1-Formyl-4-piperidinylamino)-5-nitro-N-(1,3-benzodioxol-5-ylmethyl)benzamide]	

Continued, molecule first:

Structure (SMILES)	IC50 [1] [nM]	IC50 [nM]
Nc1ccc(CNC(=O)c2cc([N+](=O)[O-])ccc2NC2CCCC2)c(Cl)c1 [N-(4-amino-2-chlorobenzyl)-2-(cyclopentylamino)-5-nitrobenzamide]	< 10	
O=C(OC1CCC(Nc2ccc([N+](=O)[O-])cc2C(=O)NCc2ccccc2)C1)c1ccccc1 (stereo not drawn) [2-[3-(Benzoyloxy)cyclopentylamino]-N-benzyl-5-nitrobenzamide]	< 10	
COC(=O)[C@@H](C)Nc1ccc([N+](=O)[O-])cc1C(=O)NCc1ccc2c(c1)OCO2 [(R)-2-[1-(Methoxycarbonyl)ethylamino]-5-nitro-N-(1,3-benzodioxol-5-ylmethyl)benzamide]	< 10	
NC(=O)C1CCC(Nc2ccc([N+](=O)[O-])cc2C(=O)NCc2ccc3c(c2)OCO3)CC1 (stereo not drawn) [2-(4-carbamoylcyclohexylamino)-5-nitro-N-(1,3-benzodioxol-5-ylmethyl)benzamide]	< 10	
O=C(NCc1ccc2c(c1)OCO2)c1cc([N+](=O)[O-])ccc1NC1CCS(=O)(=O)CC1 [2-(1,1-dioxotetrahydro-2H-thiopyran-4-ylamino)-5-nitro-N-(1,3-benzodioxol-5-ylmethyl)benzamide]	< 10	
C[C@H](CO)Nc1ccc([N+](=O)[O-])cc1C(=O)NCc1ccc(-c2ccccc2)cc1 [(R)-2-(2-Hydroxy-1-methylethyl)amino-5-nitro-N-(4-phenybenzyl)benzamide]	< 10	
CC(C)[C@@H](CO)Nc1ccc([N+](=O)[O-])cc1C(=O)NCc1ccc2c(c1)OCO2 [(S)-2-[1-(Hydroxymethyl)-2-methylpropylamino]-5-nitro-N-(1,3-benzodioxol-5-ylmethyl)benzamide]	< 10	
O=C(NCc1ccc2c(c1)OCO2)c1cc([N+](=O)[O-])ccc1NC1CCC(C(=O)O)CC1 (stereo not drawn) [2-(4-carboxycyclohexylamino)-5-nitro-N-(1,3-benzodioxol-5-ylmethyl)benzamide]	< 10	
O=C(NCc1ccc(Br)cc1)c1cc([N+](=O)[O-])ccc1NC1CCCC1 [N-(4-Bromobenzyl)-2-(cyclopentylamino)-5-nitrobenzamide]	< 10	
O=C(NCc1ccccc1)c1cc([N+](=O)[O-])ccc1NC1CCC(O)C1 (stereo not drawn) [N-Benzyl-2-(3-hydroxycyclopentylamino)-5-nitrobenzamide]	< 10	
CC[C@H](CO)Nc1ccc([N+](=O)[O-])cc1C(=O)NCc1ccc(Cl)c([N+](=O)[O-])c1 [(R)-N-(4-Chloro-3-nitrobenzyl)-2-[1-(hydroxymethyl)propylamino]-5-nitrobenzamide]		< 10
COc1ccc(CNC(=O)c2cc([N+](=O)[O-])ccc2NC2COC(=O)OC2)cc1OC [N-(3,4-dimethoxybenzyl)-5-nitro-2-(2-oxo-1,3-dioxan-5-ylamino)benzamide]	< 10	
O=C(NCCCc1ccccc1)c1cc([N+](=O)[O-])ccc1NC1CCCC1 [2-(Cyclopentylamino)-5-nitro-N-(3-phenylpropyl)benzamide]	< 10	
COc1ccc(CNC(=O)c2cc([N+](=O)[O-])ccc2NC2CCN(C(=O)OC(C)(C)C)CC2)cc1OC [2-[1-(tert-Butoxycarbonyl)piperidin-4-ylamino]-N-(3,4-dimethoxybenzyl)-5-nitrobenzamide]	< 10	
COCCOc1ccc(CNC(=O)c2cc([N+](=O)[O-])ccc2N[C@H]2CC[C@@H](O)CC2)cc1OC [2-(cis-4-Hydroxycyclohexylamino)-N-[3-methoxy-4-(2-methoxyethoxy)benzyl]-5-nitrobenzamide]	< 10	
COc1ccc(CNC(=O)c2cc([N+](=O)[O-])ccc2N[C@H]2CC[C@H](N)CC2)cc1OC [2-[(trans-4-Aminocyclohexyl)amino]-N-(3,4-dimethoxybenzyl)-5-nitrobenzamide]	< 10	
COc1cc(CNC(=O)c2cc([N+](=O)[O-])ccc2NC2CCCC2)ccc1O [2-(Cyclopentylamino)-N-(4-hydroxy-3-methoxybenzyl)-5-nitrobenzamide]	< 10	
O=C(NCc1ccc(F)cc1)c1cc([N+](=O)[O-])ccc1NC1CCCC1 [2-(Cyclopentylamino)-N-(4-fluorobenzyl)-5-nitrobenzamide]	< 10	
COc1ccc(CNC(=O)c2cc([N+](=O)[O-])ccc2NC2CCN(C(=N)N)CC2)cc1OC [2-(1-Amidinopiperidin-4-ylamino)-N-(3,4-dimethoxybenzyl)-5-nitrobenzamide hydrochloride]	< 10	
